{
  "source": "paper PMC4006730",
  "about": "“Trans-spliced Heat Shock Protein 90 Modulates Encystation in Giardia lamblia” (PLoS Neglected Tropical Diseases, 2014)",
  "assay_type_in_all_cases": "binding",
  "key": {"[1]": {"molecular_target": "T1, GlHsp90 (trans-spliced full-length heat shock protein 90) (Giardia duodenalis, UniProt A0A644F9H9)", "T1 construct": "gene GL50803_0098054; full length Hsp90, N terminus 6x His-tag (Methods text says purified HspN)", "T1 sequence (A0A644F9H9 entry or part of it)": "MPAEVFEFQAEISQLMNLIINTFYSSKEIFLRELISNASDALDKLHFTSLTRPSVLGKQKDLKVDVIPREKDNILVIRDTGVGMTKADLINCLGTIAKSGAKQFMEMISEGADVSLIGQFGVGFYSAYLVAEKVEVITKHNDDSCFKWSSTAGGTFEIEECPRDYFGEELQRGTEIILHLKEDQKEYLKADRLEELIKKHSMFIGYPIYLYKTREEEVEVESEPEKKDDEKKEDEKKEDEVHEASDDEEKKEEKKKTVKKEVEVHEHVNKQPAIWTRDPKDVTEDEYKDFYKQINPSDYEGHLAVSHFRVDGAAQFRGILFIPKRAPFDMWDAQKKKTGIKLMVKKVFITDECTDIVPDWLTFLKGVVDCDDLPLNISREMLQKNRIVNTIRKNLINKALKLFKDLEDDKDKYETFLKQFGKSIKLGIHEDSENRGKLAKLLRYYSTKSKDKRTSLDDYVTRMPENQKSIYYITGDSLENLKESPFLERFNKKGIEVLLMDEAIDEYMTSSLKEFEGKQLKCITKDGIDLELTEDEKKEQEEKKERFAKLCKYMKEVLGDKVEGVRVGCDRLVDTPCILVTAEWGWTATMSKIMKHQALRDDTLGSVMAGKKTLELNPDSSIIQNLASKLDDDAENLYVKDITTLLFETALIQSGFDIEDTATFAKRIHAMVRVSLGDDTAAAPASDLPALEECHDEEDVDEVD", "assay": "intrinsic tryptophan fluorescence quenching (ex […] nm, em […] nm), single-site fit"}, "[2]": {"molecular_target": "T1, GlHsp90 (trans-spliced full-length heat shock protein 90)", "assay": "intrinsic fluorescence quenching; also inhibits the purified ATPase (EC50 […])"}, "[3]": {"molecular_target": "T1, GlHsp90 (trans-spliced full-length heat shock protein 90)", "assay": "intrinsic fluorescence quenching; also ATPase by TLC with radiolabelled ATP (Km […])"}},
  "data": [
    {"compound": "COC1=C2C[C@@H](C)C[C@H](OC)[C@H](O)[C@@H](C)/C=C(\\C)[C@H](OC(N)=O)[C@@H](OC)/C=C\\C=C(/C)C(=O)NC(=CC1=O)C2=O", "note": "[GA, Geldanamycin]", "values": [
      {"measurement": "Kd", "setting": "[1]", "result": 1.5, "unit": "µM"}
    ]},
    {"compound": "C=CCNC1=C2C[C@@H](C)C[C@H](OC)[C@H](O)[C@@H](C)/C=C(\\C)[C@H](OC(N)=O)[C@@H](OC)/C=C\\C=C(/C)C(=O)NC(=CC1=O)C2=O", "note": "[17AAG]", "values": [
      {"measurement": "Kd", "setting": "[2]", "result": 17.1, "unit": "µM"}
    ]},
    {"compound": "Nc1ncnc2c1ncn2[C@@H]1O[C@H](COP(=O)(O)OP(=O)(O)OP(=O)(O)O)[C@@H](O)[C@H]1O", "note": "[ATP]", "values": [
      {"measurement": "Kd", "setting": "[3]", "result": 630, "unit": "µM"}
    ]}
  ]
}
